Key:
Format in all cases: functional
U-251 = test: Cytotoxicity against human U251 cells assessed as cell growth at 0.01 uM after 48 hrs by sulforhodamine B assay relative to control; conditions: U-251, 48 h, read-out: Activity
SNB-19 [1] = test: Cytotoxicity against human SNB19 cells assessed as growth inhibition after 48 hrs by sulforhodamine B assay; conditions: SNB-19, 48 h; for CC50: read-out: LC50 (the source's name)
IGROV-1 [2] = test: Cytotoxicity against human IGROV1 cells assessed as cell growth at 0.1 uM after 48 hrs by sulforhodamine B assay relative to control; conditions: IGROV-1, 48 h, read-out: Activity
NCI-H226 = test: Cytotoxicity against human NCI-H226 cells assessed as growth inhibition after 48 hrs by sulforhodamine B assay; conditions: NCI-H226, 48 h
NCI/ADR-RES = test: Cytotoxicity against human NCI/ADR-RES cells assessed as cell growth at 0.01 uM after 48 hrs by sulforhodamine B assay relative to control; conditions: read-out: Activity
SNB-19 [3] = test: Cytotoxicity against human SNB19 cells assessed as cell growth at 0.1 uM after 48 hrs by sulforhodamine B assay relative to control; conditions: SNB-19, 48 h, read-out: Activity
MOLT-4 [4] = test: Cytotoxicity against human MOLT4 cells assessed as growth inhibition after 48 hrs by sulforhodamine B assay; conditions: MOLT-4, 48 h; for CC50: read-out: LC50 (the source's name)
TK-10 [5] = test: Cytotoxicity against human TK10 cells assessed as cell growth at 0.1 uM after 48 hrs by sulforhodamine B assay relative to control; conditions: TK-10, 48 h, read-out: Activity
HOP-62 = test: Cytotoxicity against human HOP62 cells assessed as cell growth at 0.01 uM after 48 hrs by sulforhodamine B assay relative to control; conditions: HOP-62, 48 h, read-out: Activity
MDA-MB-468 = test: Cytotoxicity against human MDA-MB-468 cells assessed as cell growth at 10 uM after 48 hrs by sulforhodamine B assay relative to control; conditions: MDA-MB-468, 48 h, read-out: Activity
NCI-H322M [6] = test: Cytotoxicity against human NCI-H322M cells assessed as cell growth at 0.01 uM after 48 hrs by sulforhodamine B assay relative to control; conditions: read-out: Activity
IGROV-1 [7] = test: Cytotoxicity against human IGROV1 cells assessed as cell growth at 0.01 uM after 48 hrs by sulforhodamine B assay relative to control; conditions: IGROV-1, 48 h, read-out: Activity
T47D = test: Cytotoxicity against human T47D cells assessed as cell growth at 1 uM after 48 hrs by sulforhodamine B assay relative to control; conditions: read-out: Activity
TK-10 [8] = test: Cytotoxicity against human TK10 cells assessed as growth inhibition after 48 hrs by sulforhodamine B assay; conditions: TK-10, 48 h
MDA-MB-435 = test: Cytotoxicity against human MDA-MB-435 cells assessed as cell growth at 100 uM after 48 hrs by sulforhodamine B assay relative to control; conditions: MDA-MB-435, 48 h, read-out: Activity
RPMI-8226 [9] = test: Cytotoxicity against human RPMI8226 cells assessed as cell growth at 10 uM after 48 hrs by sulforhodamine B assay relative to control; conditions: RPMI-8226, 48 h, read-out: Activity
HL-60(TB) [10] = test: Cytotoxicity against human HL-60(TB) cells assessed as cell growth at 1 uM after 48 hrs by sulforhodamine B assay relative to control; conditions: HL-60, 48 h, read-out: Activity
HCT-15 = test: Cytotoxicity against human HCT15 cells assessed as cell growth at 100 uM after 48 hrs by sulforhodamine B assay relative to control; conditions: HCT-15, 48 h, read-out: Activity
NCI-H322M [11] = test: Cytotoxicity against human NCI-H322M cells assessed as cell growth at 1 uM after 48 hrs by sulforhodamine B assay relative to control; conditions: read-out: Activity
PC-3 = test: Cytotoxicity against human PC3 cells assessed as cell growth at 10 uM after 48 hrs by sulforhodamine B assay relative to control; conditions: PC-3, 48 h, read-out: Activity
UACC-257 [12] = test: Cytotoxicity against human UACC257 cells assessed as growth inhibition after 48 hrs by sulforhodamine B assay; conditions: UACC-257, 48 h
M14 = test: Cytotoxicity against human M14 cells assessed as cell growth at 100 uM after 48 hrs by sulforhodamine B assay relative to control; conditions: M14, 48 h, read-out: Activity
MOLT-4 [13] = test: Cytotoxicity against human MOLT4 cells assessed as cell growth at 100 uM after 48 hrs by sulforhodamine B assay relative to control; conditions: MOLT-4, 48 h, read-out: Activity
CCRF-CEM = test: Cytotoxicity against human CCRF-CEM cells assessed as cell growth at 0.01 uM after 48 hrs by sulforhodamine B assay relative to control; conditions: read-out: Activity
HCC 2998 = test: Cytotoxicity against human HCC2998 cells assessed as cell growth at 1 uM after 48 hrs by sulforhodamine B assay relative to control; conditions: HCC 2998, 48 h, read-out: Activity
MCF7 = test: Cytotoxicity against human MCF7 cells assessed as growth inhibition after 48 hrs by sulforhodamine B assay; conditions: MCF7, 48 h
UACC-257 [14] = test: Cytotoxicity against human UACC257 cells assessed as cell growth at 10 uM after 48 hrs by sulforhodamine B assay relative to control; conditions: UACC-257, 48 h, read-out: Activity
SF-268 = test: Cytotoxicity against human SF268 cells assessed as cell growth at 100 uM after 48 hrs by sulforhodamine B assay relative to control; conditions: SF-268, 48 h, read-out: Activity
SN12C = test: Cytotoxicity against human SN12C cells assessed as cell growth at 100 uM after 48 hrs by sulforhodamine B assay relative to control; conditions: read-out: Activity
SNB-19 [15] = test: Cytotoxicity against human SNB19 cells assessed as cell growth at 1 uM after 48 hrs by sulforhodamine B assay relative to control; conditions: SNB-19, 48 h, read-out: Activity
HL-60(TB) [16] = test: Cytotoxicity against human HL-60(TB) cells assessed as cell growth at 100 uM after 48 hrs by sulforhodamine B assay relative to control; conditions: HL-60, 48 h, read-out: Activity
786-0 = test: Cytotoxicity against human 786-0 cells assessed as cell growth at 0.01 uM after 48 hrs by sulforhodamine B assay relative to control; conditions: 786-0, 48 h, read-out: Activity
RPMI-8226 [17] = test: Cytotoxicity against human RPMI8226 cells assessed as cell growth at 100 uM after 48 hrs by sulforhodamine B assay relative to control; conditions: RPMI-8226, 48 h, read-out: Activity
NCI-H23 = test: Cytotoxicity against human NCI-H23 cells assessed as cell growth at 10 uM after 48 hrs by sulforhodamine B assay relative to control; conditions: NCI-H23, 48 h, read-out: Activity
ACHN = test: Cytotoxicity against human ACHN cells assessed as cell growth at 10 uM after 48 hrs by sulforhodamine B assay relative to control; conditions: read-out: Activity
NCI-H522 = test: Cytotoxicity against human NCI-H522 cells assessed as cell growth at 0.1 uM after 48 hrs by sulforhodamine B assay relative to control; conditions: NCI-H522, 48 h, read-out: Activity

Structure (SMILES): COc1cc2c(cc1OC)C(=O)/C(=C/c1cc(-c3ccc4c(c3)OCO4)n[nH]1)C2
- growth at 0.01 µM (U-251): 97%
- GI50 (SNB-19 [1]): 1.55 µM
- TGI (SNB-19 [1]): 2.96 µM
- CC50 (SNB-19 [1]): 5.63 µM
- growth at 0.1 µM (IGROV-1 [2]): 88%
- GI50 (NCI-H226): 1.55 µM
- TGI (NCI-H226): 3.32 µM
- growth at 0.01 µM (NCI/ADR-RES): 101%
- growth at 0.1 µM (SNB-19 [3]): 98%
- GI50 (MOLT-4 [4]): 2.57 µM
- TGI (MOLT-4 [4]): 6.97 µM
- CC50 (MOLT-4 [4]): > 100 µM
- growth at 0.1 µM (TK-10 [5]): 88%
- growth at 0.01 µM (HOP-62): 92%
- growth at 10 µM (MDA-MB-468): -87%
- growth at 0.01 µM (NCI-H322M [6]): 102%
- growth at 0.01 µM (IGROV-1 [7]): 100%
- growth at 1 µM (T47D): 69%
- GI50 (TK-10 [8]): 1.89 µM
- LC50 (TK-10 [8]): 5.96 µM
- TGI (TK-10 [8]): 3.36 µM
- growth at 100 µM (MDA-MB-435): -95%
- growth at 10 µM (RPMI-8226 [9]): -59%
- growth at 1 µM (HL-60(TB) [10]): 86%
- growth at 100 µM (HCT-15): -69%
- growth at 1 µM (NCI-H322M [11]): 82%
- growth at 10 µM (PC-3): -75%
- GI50 (UACC-257 [12]): 1.71 µM
- LC50 (UACC-257 [12]): 5.72 µM
- TGI (UACC-257 [12]): 3.13 µM
- growth at 100 µM (M14): -80%
- growth at 100 µM (MOLT-4 [13]): -17%
- growth at 0.01 µM (CCRF-CEM): 97%
- growth at 1 µM (HCC 2998): 102%
- GI50 (MCF7): 0.33 µM
- LC50 (MCF7): 4.52 µM
- TGI (MCF7): 1.42 µM
- growth at 10 µM (UACC-257 [14]): -96%
- growth at 100 µM (SF-268): -73%
- growth at 100 µM (SN12C): -96%
- growth at 1 µM (SNB-19 [15]): 84%
- growth at 100 µM (HL-60(TB) [16]): -36%
- growth at 0.01 µM (786-0): 96%
- growth at 100 µM (RPMI-8226 [17]): -54%
- growth at 10 µM (NCI-H23): -63%
- growth at 10 µM (ACHN): -90%
- growth at 0.1 µM (NCI-H522): 89%

Structure (SMILES): COc1ccc(C(=O)/C=C/c2cc(-c3cc(OC)c(OC)c(OC)c3)n[nH]2)cc1OC
- growth at 0.01 µM (U-251): 96%
- TGI (SNB-19 [1]): 3.01 µM
- CC50 (SNB-19 [1]): 6.36 µM
- growth at 0.1 µM (IGROV-1 [2]): 96%
- TGI (NCI-H226): 3.32 µM
- growth at 0.01 µM (NCI/ADR-RES): 99%
- growth at 0.1 µM (SNB-19 [3]): 93%
- TGI (MOLT-4 [4]): 5.56 µM
- CC50 (MOLT-4 [4]): > 100 µM
- growth at 0.1 µM (TK-10 [5]): 90%
- growth at 0.01 µM (HOP-62): 101%
- growth at 10 µM (MDA-MB-468): -87%
- growth at 0.01 µM (NCI-H322M [6]): 94%
- growth at 0.01 µM (IGROV-1 [7]): 98%
- growth at 1 µM (T47D): 75%
- LC50 (TK-10 [8]): 5.1 µM
- TGI (TK-10 [8]): 2.6 µM
- growth at 100 µM (MDA-MB-435): -73%
- growth at 10 µM (RPMI-8226 [9]): -50%
- growth at 1 µM (HL-60(TB) [10]): 67%
- growth at 100 µM (HCT-15): -60%
- growth at 1 µM (NCI-H322M [11]): 83%
- growth at 10 µM (PC-3): -88%
- LC50 (UACC-257 [12]): 5.37 µM
- TGI (UACC-257 [12]): 2.83 µM
- growth at 100 µM (M14): -68%
- growth at 100 µM (MOLT-4 [13]): -23%
- growth at 0.01 µM (CCRF-CEM): 95%
- growth at 1 µM (HCC 2998): 116%
- LC50 (MCF7): 5.72 µM
- TGI (MCF7): 1.95 µM
- growth at 10 µM (UACC-257 [14]): -98%
- growth at 100 µM (SF-268): -88%
- growth at 100 µM (SN12C): -86%
- growth at 1 µM (SNB-19 [15]): 73%
- growth at 100 µM (HL-60(TB) [16]): -51%
- growth at 0.01 µM (786-0): 96%
- growth at 100 µM (RPMI-8226 [17]): -41%
- growth at 10 µM (NCI-H23): -36%
- growth at 10 µM (ACHN): -95%
- growth at 0.1 µM (NCI-H522): 91%

From ChEMBL document CHEMBL4138123, “Design, synthesis and biological evaluation of novel pyrazolochalcones as potential modulators of PI3K/Akt/mTOR pathway and inducers of apoptosis in breast cancer cells” (Eur J Med Chem, 2017)
